From patent US8222288B2, “Small molecule inhibitors of MDM2 and the uses thereof” (The Regents of the University of Michigan, priority 2006, dated 2012)
Several values for one entry are separate records, joined by “and”; a condition that tells them apart may be missing. Equal values may be shown once. Read-outs that look alike come from different tables or passages of the source.

Assays:
[1] = biological target: MDM2 protein (Homo sapiens, UniProt Q00987); experiment: MDM2 binding assay (competition with F-6 probe; IC50 and calculated Ki); conditions: F-6 [1 nM]; for IC50: MDM2 [10 nM], repeat determinations listed line by line; for Ki: value in parentheses, calculation of Ki: MDM2 [10 nM], read-out: (Ki ± SD)
[2] = test system: HCT116 p53KO cells; experiment: Cell growth inhibition, HCT116 p53KO; conditions: single runs and mean ± SD line
Description: (§1) Cells were seeded in 96-well flat bottom cell culture plates at a density of 3-4×10^3 cells/well and incubated in the presence of compounds for 4 days.

[3] = test system: LNCaP (p53 wild-type) cells; experiment: Cell growth inhibition, WST-8, 4 days, LNCaP; conditions: single runs and mean ± SD line
Description: (§2) To test these predictions, a cell growth assay was developed using human prostate cancer LNCaP (p53 wild-type) and PC-3 (p53 null) cell lines.
as §1

[4] = test system: PC-3 (p53 null) cells; experiment: Cell growth inhibition, WST-8, 4 days, PC3; conditions: single runs and mean ± SD line
Description: as §2, §1

[5] = test system: HCT116 (wild-type p53) colon cancer cells; experiment: Cell growth inhibition, HCT116 p53WT; conditions: single runs and mean ± SD line
Description: as §1

[6] = Homo sapiens, HCT-116, read-out: HCT116 p53KO IC50 (μM), HCT116 p53KO
[7] = Homo sapiens, LNCaP, 96 h, read-out: LNCaP IC50 (μM), LNCaP p53 wild-type, 4 days, WST-8
[8] = read-out: HCT116 p53KO IC50, HCT116 p53KO
[9] = Homo sapiens, 96 h, read-out: PC3 IC50 (μM), PC3 p53 null, 4 days, WST-8
[10] = read-out: PC3 IC50, PC3 p53 null, 4 days, WST-8
[11] = Homo sapiens, HCT-116, read-out: HCT116 p53WT IC50 (μM), HCT116 p53WT
[12] = read-out: LNCaP IC50, LNCaP p53 wild-type, 4 days, WST-8
[13] = read-out: HCT116 p53WT IC50, HCT116 p53WT

Sequence of MDM2 protein (Q00987 whole entry, species assumed): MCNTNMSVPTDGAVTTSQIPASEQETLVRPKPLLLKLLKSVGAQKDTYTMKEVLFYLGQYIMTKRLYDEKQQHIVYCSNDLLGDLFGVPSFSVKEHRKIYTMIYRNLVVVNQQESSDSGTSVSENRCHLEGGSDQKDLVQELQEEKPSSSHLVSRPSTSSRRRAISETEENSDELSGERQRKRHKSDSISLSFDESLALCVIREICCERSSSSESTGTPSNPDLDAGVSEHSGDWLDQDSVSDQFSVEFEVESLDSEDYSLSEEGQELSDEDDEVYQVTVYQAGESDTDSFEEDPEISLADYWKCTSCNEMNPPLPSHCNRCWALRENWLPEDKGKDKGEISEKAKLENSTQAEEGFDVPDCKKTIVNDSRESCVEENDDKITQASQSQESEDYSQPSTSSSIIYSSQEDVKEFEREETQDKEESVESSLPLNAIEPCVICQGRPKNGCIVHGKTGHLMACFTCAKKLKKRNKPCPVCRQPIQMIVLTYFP

| Structure (SMILES) | IC50 [1] | IC50 [2, 6] | IC50 [3, 7] | IC50 [4, 9] | IC50 [5, 11] | also measured |
| --- | --- | --- | --- | --- | --- | --- |
| CC(C)(C)C[C@H]1N[C@@H](C(=O)NCCC2CCC(O)C2)[C@H](c2ccc(F)c(Cl)c2)[C@@]12C(=O)Nc1cc(Cl)c(F)cc12 (single isomer, unassigned) [MDM2-319-6, 6-CHLORO-4′-(3-CHLORO-4-FLUOROPHENYL)-2′-(2,2-DIMETHYL-PROPYL)-5-FLUORO-2-OXO-1,2-DIHYDRO-SPIRO[INDOLE-3,3′-PYRROLIDINE]-5′-CARBOXYLIC ACID [2-(3-HYDROXY-CYCLOPENTYL)-ETHYL]-AMIDE] | 0.59 µM and 0.55 µM | – | – | – | – | – |
| CC(C)(C)C[C@H]1N[C@@H](C(=O)NCC[C@H](O)CO)[C@H](c2ccc(F)c(Cl)c2)[C@@]12C(=O)Nc1cc(Cl)c(F)cc12 [MDM2-319, (2′R,3S,3″S,4′R,5′R)6-CHLORO-4′-(3-CHLORO-4-FLUORO-PHENYL)-2′-(2,2-DIMETHYL-PROPYL)-5-FLUORO-2-OXO-1,2-DIHYDRO-SPIRO[INDOLE-3,3′-PYRROLIDINE]-5′-CARBOXYLIC ACID (3,4-DIHYDROXY-BUTYL)-AMIDE] | – | 12.8 ± 1.29 µM | 0.229 ± 0.04 µM | – | – | – |
| O=C(NCC[C@H](O)CO)[C@@H]1N[C@H](CC2CCCC2)[C@]2(C(=O)Nc3cc(Cl)c(F)cc32)[C@H]1c1ccc(F)c(Cl)c1 [MDM2-319-1, 6-CHLORO-4′-(3-CHLORO-4-FLUOROPHENYL)-2′-CYCLOPENTYLMETHYL-5-FLUORO-2-OXO-1,2-DIHYDRO-SPIRO[INDOLE-3,3′-PYRROLIDINE]-5′-CARBOXYLIC ACID (3,4-DIHYDROXY-BUTYL)-AMIDE] | 0.194 µM and 0.072 µM | – | – | – | – | – |
| O=C(NCC[C@H](O)CO)[C@@H]1N[C@H](Cc2ccccc2)[C@]2(C(=O)Nc3cc(Cl)c(F)cc32)[C@H]1c1ccc(F)c(Cl)c1 [MDM2-319-2] | 175 µM and > 80 µM | 22.2 µM | – | 14.4 µM | – | Ki [1]: 16.4 µM; IC50 [2, 8]: 19.5 µM and 25.4 µM and 22.4 µM; IC50 [4, 10]: 19.6 µM (2×) and 17.9 µM |
| O=C(NCC[C@H](O)CO)[C@@H]1N[C@H](C2CCCCC2)[C@]2(C(=O)Nc3cc(Cl)c(F)cc32)[C@H]1c1ccc(F)c(Cl)c1 [MDM2-319-4, 6-CHLORO-4′-(3-CHLORO-4-FLUOROPHENYL)-2′-CYCLOHEXYL-5-FLUORO-2-OXO-1,2-DIHYDRO-SPIRO[INDOLE-3,3′-PYRROLIDINE]-5′-CARBOXYLIC ACID (3,4-DIHYDROXY-BUTYL)-AMIDE] | 0.71 µM and 1.16 µM and 0.46 µM | – | – | – | – | Ki [1]: 0.066 µM |
| CC(C)(C)C[C@H]1N[C@@H](C(=O)NCCC2CCC(O)C2)[C@H](c2ccc(F)c(Cl)c2)[C@@]12C(=O)Nc1cc(Cl)c(F)cc12 (some centres unmarked) [MDM2-319-5] | 0.055 µM and 0.04 µM | 10.5 µM | 0.602 µM | 9.47 µM | 0.993 µM | – |
| COC(C)(C)C[C@H]1N[C@@H](C(=O)NCC[C@H](O)CO)[C@H](c2ccc(F)c(Cl)c2)[C@@]12C(=O)Nc1cc(Cl)c(F)cc12 [MI-319-7] | 39.3 µM | – | 2.17 µM | 39.7 µM | 8.22 µM | – |
| O=C(NCC[C@H](O)CO)[C@@H]1N[C@H](C2CCCC2)[C@]2(C(=O)Nc3cc(Cl)c(F)cc32)[C@H]1c1ccc(F)c(Cl)c1 [MI-319-8, 6-CHLORO-4′-(3-CHLORO-4-FLUOROPHENYL)-2′-CYCLOPENTYL-5-FLUORO-2-OXO-1,2-DIHYDRO-SPIRO[INDOLE-3,3′-PYRROLIDINE]-5′-CARBOXYLIC ACID (3,4-DIHYDROXY-BUTYL)-AMIDE] | 0.34 µM and 0.53 µM | – | – | – | – | – |
| CN1CCN(C(=O)[C@@H]2N[C@H](CC(C)(C)C)[C@]3(C(=O)Nc4cc(Cl)c(F)cc43)[C@H]2c2ccc(F)c(Cl)c2)CC1 [MI-319-9] | 3.58 µM | – | 2.87 µM | – | – | IC50 [3, 12]: 2.77 µM and 1.75 µM |
| CC(C)(C)C[C@H]1N(S(=O)(=O)C(F)(F)F)[C@@H](C(=O)NCCN2CCOCC2)[C@H](c2ccc(F)c(Cl)c2)[C@@]12C(=O)Nc1cc(Cl)c(F)cc12 [MI-319-10] | – | – | 0.776 µM | 10.5 µM | 1.41 µM | IC50 [5, 13]: 1.95 µM and 1.09 µM and 1.48 µM; IC50 [4, 10]: 10.4 µM and 8.07 µM and 9.63 µM; IC50 [3, 12]: 0.828 µM and 0.449 µM and 0.68 µM |
| CC(=O)N1[C@@H](C(=O)NCC[C@H](O)CO)[C@H](c2ccc(F)c(Cl)c2)[C@@]2(C(=O)Nc3cc(Cl)c(F)cc32)[C@H]1CC(C)(C)C [MI-319-13, 1′-ACETYL-6-CHLORO-4′-(3-CHLORO-4-FLUOROPHENYL)-2′-(2,2-DIMETHYL-PROPYL)-5-FLUORO-2-OXO-1,2-DIHYDRO-SPIRO[INDOLE-3,3′-PYRROLIDINE]-5′-CARBOXYLIC ACID (3,4-DIHYDROXY-BUTYL)-AMIDE] | 5.87 µM and 5.04 µM | 32.6 µM | – | – | – | IC50 [2, 8]: 35.1 µM and 33 µM and 33.6 µM |
| CC(C)(C)C[C@H]1N[C@@H](C(=O)NCC(=O)O)[C@H](c2ccc(F)c(Cl)c2)[C@@]12C(=O)Nc1cc(Cl)c(F)cc12 [MI-319-15, {[6-CHLORO-4′-(3-CHLORO-4-FLUOROPHENYL)-2′-(2,2-DIMETHYL-PROPYL)-5-FLUORO-2-OXO-1,2-DIHYDRO-SPIRO[INDOLE-3,3′-PYRROLIDINE]-5′-CARBONYL]-AMINO}-ACETIC ACID] | 0.35 µM and 0.18 µM | > 30 µM | 4.52 µM | > 30 µM | 12.1 µM | IC50 [5, 13]: 12.9 µM and 13.9 µM and 13 µM; IC50 [3, 12]: 4.12 µM and 6.11 µM and 4.92 µM |
| CC(C)(C)C[C@H]1N[C@@H](C(=O)NCC[C@H](O)C(=O)O)[C@H](c2ccc(F)c(Cl)c2)[C@@]12C(=O)Nc1cc(Cl)c(F)cc12 [MI-319-16] | – | – | – | > 30 µM | > 30 µM | – |
| CC(C)(C)C[C@H]1N[C@@H](C(=O)NCCn2ccnc2)[C@H](c2ccc(F)c(Cl)c2)[C@@]12C(=O)Nc1cc(Cl)c(F)cc12 [MI-319-17, 6-CHLORO-4′-(3-CHLORO-4-FLUOROPHENYL)-2′-(2,2-DIMETHYL-PROPYL)-5-FLUORO-2-OXO-1,2-DIHYDRO-SPIRO[INDOLE-3,3′-PYRROLIDINE]-5′-CARBOXYLIC ACID (2-IMIDAZOL-1-YL-ETHYL)-AMIDE] | 0.39 µM and 0.49 µM | – | – | – | – | – |
| CC(C)(C)C[C@H]1N[C@@H](C(=O)NCC[C@@H](O)C[C@@H](O)CC(=O)O)[C@H](c2ccc(F)c(Cl)c2)[C@@]12C(=O)Nc1cc(Cl)c(F)cc12 [MI-319-18, 7-{[6-CHLORO-4′-(3-CHLORO-4-FLUOROPHENYL)-2′-(2,2-DIMETHYL-PROPYL)-5-FLUORO-2-OXO-1,2-DIHYDRO-SPIRO[INDOLE-3,3′-PYRROLIDINE]-5′-CARBONYL]-AMINO}-3,5-DIHYDROXY-HEPTANOIC ACID] | 3.51 µM and 3.57 µM | > 30 µM | > 30 µM | > 30 µM | > 30 µM | – |
| CC(C)(C)C[C@H]1N[C@@H](C(=O)NC[C@H](O)[C@H](O)CO)[C@H](c2ccc(F)c(Cl)c2)[C@@]12C(=O)Nc1cc(Cl)c(F)cc12 [MI-319-19, 6-CHLORO-4′-(3-CHLORO-4-FLUOROPHENYL)-2′-(2,2-DIMETHYL-PROPYL)-5-FLUORO-2-OXO-1,2-DIHYDRO-SPIRO[INDOLE-3,3′-PYRROLIDINE]-5′-CARBOXYLIC ACID (2,3,4-TRIHYDROXY-BUTYL)-AMIDE] | 0.5 µM and 0.49 µM | – | – | – | – | – |
| CC(C)(C)C[C@H]1N[C@@H](C(=O)NCCNC(=N)N)[C@H](c2ccc(F)c(Cl)c2)[C@@]12C(=O)Nc1cc(Cl)c(F)cc12 [MI-319-20, 6-CHLORO-4′-(3-CHLORO-4-FLUOROPHENYL)-2′-(2,2-DIMETHYL-PROPYL)-5-FLUORO-2-OXO-1,2-DIHYDRO-SPIRO[INDOLE-3,3′-PYRROLIDINE]-5′-CARBOXYLIC ACID (2-GUANIDINO-ETHYL)-AMIDE] | – | – | 27.4 µM | – | – | IC50 [3, 12]: 31.6 µM |
| CC(C)(C)C[C@H]1N[C@@H](C(=O)NCCc2ncc[nH]2)[C@H](c2cccc(Cl)c2)[C@@]12C(=O)Nc1cc(Cl)c(F)cc12 [MI-319-21] | – | 11.8 µM | 2.84 µM | 21.9 µM | 4.4 µM | – |
